Columns and labels:
skin of normal rats = experiment: Intradermal injection, cell migration / cellularity at the site of administration (histology); assay type: in vivo, female Fischer rats; settings: 50 microlitre intradermal, 48 hours; for cellularity at the site of injection: versus saline
Method: The effects of intradermally injected glucose, maltose and maltopentaose on cell migration into the site of administration in the skin of normal rats. Healthy, specific pathogen free female Fischer rats 10-12 weeks of age (n=3) were anesthetised with ether and hair on their backs was clipped (electric miniclippers) from two areas of approximately 1.5 cm×4 cm either side of and paralleling the spinal column. The test and control substances were injected into the centre of 1 square cm defined areas. Substances were administered in such a fashion that each was injected into 4 different positions at least once in order to control for any possible anatomical positioning effect. Agents were dissolved in normal saline at a concentration of 100 mg/ml and sterile filtered prior to administration. Fifty microlitre injection volumes were given intradermally using 30 gauge needles and control injections consisted of 50 microlitres of sterile normal saline. Animals were sacrificed 48 hours following injection and injection sites were subjected to histological sectioning followed by microscopic examination.
(§1) The effects of intradermally injected dextran and maltopentaose on cell migration into the site of administration in the skin of normal rats. In a similar experiment to that outlined in Example 1 above, female Fischer rats, 10-12 weeks of age (n=3) were treated with 50 microlitre volumes of i) 50 mg/ml of clinical grade dextran (MW 71,400); ii) 50 mg/ml maltopentaose; or iii) normal saline using a 30 gauge needle. Skin injection sites were submitted for histological sectioning and examined microscopically 48 hours following injection.
as §1, with “injected maltotriose” for “injected dextran”, “age (n=2)” for “age (n=3)”, “i) 100” for “i) 50”, “of maltotriose;” for “of clinical grade dextran (MW 71,400);”, “ii) 100” for “ii) 50”
(§2) The effects of intradermally injected maltopentaose and 1,4-beta-mannohexaose on cell migration into the site of administration in the skin of normal rats. In a similar experiment to that outlined in Example 1 above, female Fischer rats, 10-12 weeks of age (n=2) were treated with 50 microlitre volumes of i) 100 mg/ml of maltopentaose; ii) 100 mg/ml of 1,4-beta-mannohexaose; or iii) normal saline using a 30 gauge needle. Skin injection sites were submitted for histological sectioning and examined microscopically 48 hours following injection.
as §2, with “amylose” for “maltopentaose”, “the O-phosphorylated mannan isolated from Pichia holstii” for “1,4-beta-mannohexaose”, “50” for “100”, “amylose;” for “maltopentaose;”, “the O-phosphorylated mannan from Pichia holstii;” for “1,4-beta-mannohexaose;”, “injection. […]” for “injection.”

cutaneous tissue = experiment: Dermal application: cellularity and collagen deposition in cutaneous tissue (general statements); assay type: in vivo; settings: general statement in the description
[1] = system: skin (dermis) fibroblasts; experiment: Intradermal injection into abdominal skin, cellularity, collagen (Gomori's stain) and fibroblasts (prolyl 4-hydroxylase immunohistochemistry); assay type: in vivo, female Wistar rats; settings: Example 7, 50 mg/ml in sterile saline, 50 microliters intradermal; for dermal collagen (Gomori's staining) / fibroblast-like cells / cellular infiltrate in the dermis: 48 hours and 7 days; for fibroblast-like cells / cellular infiltrate in the dermis: H&E
Method: Following ether anaesthesia, hair was clipped from skin on both sides of the abdominal region of 8-10 week old female Wistar rats. Intradermal injections (via a 30 gauge needle) of either sterile saline (50 microliters), PM5 (50 microliters, 50 mg/ml in sterile saline) or amylopectin (50 microliters, 50 mg/ml in sterile saline) were placed in the centre of 1 cm^2 defined areas of abdominal skin. Forty-eight hours and 7 days after injection, groups of animals were euthanased by CO2 overdose and skin samples were examined following the preparation of 6 μm histological sections that were stained with H&E and Gomori's (collagen) stain. In addition, immunohistochemistry using a mouse anti-rat prolyl 4-hydroxylase monoclonal antibody (Chemicon International Inc) in paraffin embedded skin sections was used to identify fibroblasts within the dermis.

[2] = Example 1, 100 mg/ml in normal saline

## OC[C@H]1O[C@H](O[C@H]2[C@H](O)[C@@H](O)C(O)O[C@@H]2CO)[C@H](O)[C@@H](O)[C@@H]1O (mixture of isomers) [maltose, reference compound]
Skin of normal rats; [2]
  cellularity at the site of injection: neither saline, glucose nor maltose had any effect on cellularity

## OC[C@H]1O[C@@H](O[C@H]2[C@H](O)[C@H](O)[C@H](O[C@H]3[C@H](O)[C@H](O)[C@H](O[C@H]4[C@H](O)[C@H](O)[C@H](O[C@H]5[C@H](O)[C@H](O)C(O)O[C@@H]5CO)O[C@@H]4CO)O[C@@H]3CO)O[C@@H]2CO)[C@@H](O)[C@@H](O)[C@@H]1O (stereo partly drawn) [1,4-beta-D-mannopentaose]
Cutaneous tissue
  increase in cellularity and collagen deposition in cutaneous tissue / tissue remodelling effect: effective tissue remodelling agents and effective anti-wrinkle compounds

## OC[C@H]1O[C@@H](O[C@H]2[C@H](O)[C@H](O)[C@H](O[C@H]3[C@H](O)[C@H](O)[C@H](O[C@H]4[C@H](O)[C@H](O)[C@H](O[C@H]5[C@H](O)[C@H](O)[C@H](O[C@H]6[C@H](O)[C@H](O)C(O)O[C@@H]6CO)O[C@@H]5CO)O[C@@H]4CO)O[C@@H]3CO)O[C@@H]2CO)[C@@H](O)[C@@H](O)[C@@H]1O (stereo partly drawn) [1,4-beta-mannohexaose]
Skin of normal rats; Example 4, 100 mg/ml
  cellularity, 1,4-beta-mannohexaose injection sites versus maltopentaose sites: the results were not significantly different
  cellularity at the site of injection: increases in cellularity
Cutaneous tissue
  increase in cellularity and collagen deposition in cutaneous tissue / tissue remodelling effect: effective tissue remodelling agents and effective anti-wrinkle compounds

## O=P(O)(O)OC[C@H]1O[C@H](O[C@@H]2[C@H](O)[C@@H](O[C@@H]3[C@H](O)[C@@H](O[C@@H]4[C@H](O)[C@@H](O[C@H]5[C@@H](O)[C@H](O)[C@@H](CO)O[C@@H]5O)O[C@H](CO)[C@H]4O)O[C@H](CO)[C@H]3O)O[C@H](CO)[C@H]2O)[C@@H](O)[C@@H](O)[C@@H]1O [PM5, 6-O-phospho-alpha-D-mannose-(1,3)-alpha-D-mannose-(1,3)-alpha-D-mannose-(1,3)-alpha-D-mannose-(1,2)-alpha-D-mannose]
[1]
  dermal collagen (Gomori's staining): collagen deposited in the lower dermal layers
  fibroblast-like cells / cellular infiltrate in the dermis: increase in fibroblast-like cells
Cutaneous tissue
  increase in cellularity and collagen deposition in cutaneous tissue / tissue remodelling effect: effective tissue remodelling agents and effective anti-wrinkle compounds

## amylopectin
[1]
  fibroblast numbers (immunohistochemical staining, anti-rat prolyl 4-hydroxylase): influx of fibroblastoid cells
  dermal collagen (Gomori's staining): increase in dermal collagen
  fibroblast-like cells / cellular infiltrate in the dermis: marked “fibroblast-like” cellular infiltrate in both the upper and lower regions of the dermis
[1]; listed as Amylopectin
  fibroblast numbers (immunohistochemical staining, anti-rat prolyl 4-hydroxylase): increase in dermal collagen (as indicated Gomori's staining) (FIG. 3), and fibroblast numbers
Cutaneous tissue
  increase in cellularity and collagen deposition in cutaneous tissue / tissue remodelling effect: particularly effective in this regard

## amylose
Skin of normal rats; Example 5, 50 mg/ml
  cellularity at the site of injection: increases in cellularity

## dextran [reference compound]
Skin of normal rats; Example 2, 50 mg/ml
  cellularity at the site of injection: increased cellularity was noticed in the dextran injection sites but this was not statistically significantly different from the saline injected sites

## maltoheptaose
Cutaneous tissue
  increase in cellularity and collagen deposition in cutaneous tissue / tissue remodelling effect: effective tissue remodelling agents and effective anti-wrinkle compounds

## maltohexaose
Cutaneous tissue
  increase in cellularity and collagen deposition in cutaneous tissue / tissue remodelling effect: effective tissue remodelling agents and effective anti-wrinkle compounds

## maltopentaose
Skin of normal rats; [2]
  cellularity at the site of injection: significant increase in cellularity (P=0.001) versus saline
Skin of normal rats; Example 2, 50 mg/ml
  cellularity at the site of injection: clear and significant difference in cellularity versus saline
Skin of normal rats; Example 3, 100 mg/ml
  cellularity at the site of injection: clear and significant difference in cellularity versus saline
Skin of normal rats; Example 4, 100 mg/ml
  cellularity at the site of injection: increases in cellularity
Cutaneous tissue
  increase in cellularity and collagen deposition in cutaneous tissue / tissue remodelling effect: effective tissue remodelling agents and effective anti-wrinkle compounds

## maltotriose [reference compound]
Skin of normal rats; Example 3, 100 mg/ml
  cellularity at the site of injection: no increase in cellularity
